Paper PMC3742649 (Endocrine, 2013)
“Also recorded” adds a separate entry of the source. Values belong to the molecule of their own block, whether it stands above or below them. Where a SMILES comes first, the peptide text is derived from it.

Experiments:
[1] = target: T1, novel non-AT1, non-AT2 angiotensin binding site (neurolysin) (Rattus norvegicus, UniProt P42676); assay: Competition binding of 125I-Sar1,Ile8 Ang II in rat testis membranes; settings: for inhibition of 125I-SI Ang II binding in testis at concentrations up to 1 mM: rat testis
[2] = target: T1, novel non-AT1, non-AT2 angiotensin binding site (neurolysin); assay: Competition binding of 125I-Sar1,Ile8 Ang II in rat brain membranes; settings: for inhibition of 125I-SI Ang II binding in brain at concentrations up to 1 mM: rat brain
neurolysin = settings: read-out: KI for neurolysin; reported value; cited from earlier work
[3] = listed as Proline-Isoleucine dipeptide

T1 sequence (P42676 38-704): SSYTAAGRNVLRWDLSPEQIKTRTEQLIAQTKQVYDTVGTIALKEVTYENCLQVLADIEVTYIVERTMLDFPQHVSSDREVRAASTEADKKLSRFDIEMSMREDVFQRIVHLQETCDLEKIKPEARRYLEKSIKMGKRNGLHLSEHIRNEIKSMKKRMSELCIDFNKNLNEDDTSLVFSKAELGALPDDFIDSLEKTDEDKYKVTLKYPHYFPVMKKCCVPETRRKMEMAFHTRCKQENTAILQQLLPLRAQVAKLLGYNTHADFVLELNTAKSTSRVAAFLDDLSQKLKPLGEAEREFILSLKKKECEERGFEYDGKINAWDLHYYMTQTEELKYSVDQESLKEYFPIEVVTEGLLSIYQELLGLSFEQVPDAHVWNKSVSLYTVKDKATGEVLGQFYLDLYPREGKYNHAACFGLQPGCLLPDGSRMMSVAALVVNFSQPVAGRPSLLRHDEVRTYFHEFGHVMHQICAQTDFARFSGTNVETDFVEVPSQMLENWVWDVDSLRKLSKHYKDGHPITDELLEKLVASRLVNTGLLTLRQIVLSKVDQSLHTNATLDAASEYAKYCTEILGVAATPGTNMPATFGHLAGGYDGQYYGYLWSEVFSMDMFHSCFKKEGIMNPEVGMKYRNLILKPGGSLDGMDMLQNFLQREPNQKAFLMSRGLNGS

SMILES: CC[C@H](C)[C@H](NC(=O)[C@H](CCCN=C(N)N)NC(=O)[C@H](CCCN=C(N)N)NC(=O)[C@H](CC(C)C)NC(=O)[C@H](Cc1ccccc1)NC(=O)CNC(=O)CNC(=O)[C@@H](N)Cc1ccc(O)cc1)C(=O)O [Dynorphin A (1–8)]
IC50 [1]: 2200 nM

SMILES: CC[C@H](C)[C@H](NC(=O)[C@@H]1CCCN1)C(=O)O [Pro-Ile, proline-isoleucine dipeptide] (H-Pro-Ile-OH)
inhibition of 125I-SI Ang II binding in brain at concentrations up to 1 mM [2]: no inhibition; also recorded: failed to inhibit; also recorded: did not inhibit | inhibition of 125I-SI Ang II binding in brain at concentrations up to 1 mM [2, 3]: inactive | Ki (neurolysin): 90000 nM | inhibition of 125I-SI Ang II binding in testis at concentrations up to 1 mM [1]: no inhibition; also recorded: failed to inhibit; also recorded: did not inhibit | inhibition of 125I-SI Ang II binding in testis at concentrations up to 1 mM [1, 3]: inactive

IC50 ([2]; IC50 in brain, rat brain membranes, Figure 1 Panel A): 82.2 nM | IC50 ([1]; IC50 in testis, rat testis membranes, Figure 1 Panel A): 126 nM
SMILES: CC[C@H](C)[C@H](NC(=O)[C@@H]1CCCN1C(=O)[C@H](Cc1c[nH]cn1)NC(=O)[C@@H](NC(=O)[C@H](Cc1ccc(O)cc1)NC(=O)[C@@H](NC(=O)[C@H](CCCN=C(N)N)NC(=O)CNC)C(C)C)[C@@H](C)CC)C(=O)O [SI Ang II, Sar^1, Ile^8 angiotensin II]
